Read-outs that look alike come from different tables or passages of the source.
Assays:
Type in all cases: cell-based
[1] = tested on: human stomach cancer cells MKN-74 cocultured with normal stromal cells derived from the human stomach, Hs738; assay: Cell proliferation test, coculture test with normal stromal cells Hs738 (GFP fluorescence)
Description: Human stomach cancer cells MKN-74 (Riken Cell Bank) were cultured at 37° C. and 5% CO2 in DMEM supplemented with 10% FBS (product of GIBCO Co.), 100 units/mL penicillin G (product of Invitrogen Co.), and 100 μg/mL streptomycin (product of Invitrogen Co.).
The above cancer cells were allowed to undergo gene transfer of Green fluorescence protein (GFP) expression vector, pEGFP-C1 (product of BD Biosciences Co.) using the Lipofectamine reagent (product of Invitrogen Co.), to thereby clone cells stably expressing GFP.
Normal stromal cells derived from the human stomach, Hs738 ((CRL-7869), ATCC) were cultured at 37° C. and 5% CO2 in DMEM supplemented with 10% FBS, 100 units/mL penicillin G (product of Invitrogen Co.), 100 μg/mL streptomycin (product of Invitrogen Co.), 5 μg/mL insulin, 5 μg/mL transferrin (product of Wako Pure Chemical Industries Co.), 1.4 μM hydrocortisone (product of Sigma Co.), and […] basic-FGF (product of Pepro Tech Co.).
The above normal stromal cells derived from the human stomach, Hs738 were dispersed at 5×10^4 cells/mL in DMEM containing 1% dialyzed serum, 5 μg/mL insulin, 5 μg/mL transferrine (product of Wako Pure Chemical Industries Co.), and 1.4 μM hydrocortisone (product of Sigma Co.), and were placed in a 96-well plate at 0.1 mL/well. Respective evaluation samples (the compounds expressed by Structural Formulas (1) to (13)) were added thereto at respective concentrations, followed by culturing at 37° C. and 5% CO2 for 2 days.
Next, the above human stomach cancer cells MKN-74 were dispersed in DMEM at 5×10^5 cells/mL, and were placed at 10 μL/well in the plate in which the above normal stromal cells derived from the human stomach, Hs738 had been cultured, followed by further coculturing at 37° C. and 5% CO2 for 3 days.
Measurement of cell proliferation rates in the above coculture test and monoculture test was performed in the following manner.
The medium was removed from the wells of the above plate, and a cytolysis liquid (10 mM Tris-HCl [pH 7.4], 150 mM NaCl, 0.9 mM CaCl2, and 1% Triton X-100) was added thereto at 0.1 mL/well to lyse the cells. The fluorescence intensity of GFP was measured at an excitation wavelength of 485 nm and a fluorescence wavelength of 538 nm, and the cell proliferation rates were calculated from the following formula. Cell proliferation rate (%)=(Fluorescence intensity in the presence of the evaluation sample/Fluorescence intensity in the absence of the evaluation sample)×100

[2] = tested on: Helicobacter pylori JCM12093 strain; assay: Measurement of MIC for Helicobacter pylori JCM12093; details: for MIC: Helicobacter pylori, read-out: MIC Helicobacter pylori JCM 12093; for anti-Helicobacter pylori activity (in words): summary of Table 3, H. pylori JCM12093 and JCM12095 strains
Description: Each of the above compounds was measured for minimum inhibitory concentration (MIC) for Helicobacter pylori.
Helicobacter pylori JCM12093 strain and H. pylori JCM12095 strain each were statically cultured in a HP medium (brain heart infusion broth (product of Becton, Dickinson Co.) supplemented with 10% fetal bovine serum (product of Life Technologies Co.)) for 144 hours at 37° C. under microaerobic culture conditions (microaerobic conditions (N2:O2:CO2=85:5:10)).
After completion of the culturing, the culture was suspended with the HP medium and diluted so that Helicobacter pylori was 2×10^6 CFU/mL to 9×10^6 CFU/mL.
Each of the test samples (each of the above compounds, clarithromycin, and ampicillin) was prepared with the HP medium to have a concentration of 256 mg/L. From this concentration, the test sample was 2-fold diluted serially in 15 steps to 0.0078 mg/L.
(§1) The above-diluted culture was added at 50 μL/well to 50 μL/well of the HP medium containing each of the test samples at the above concentrations, and was statically cultured for 144 hours at 37° C. under microaerobic culture conditions (microaerobic conditions (N2:O2:CO2=85:5:10)). After completion of the culturing, the presence or absence of proliferation of each bacterium was visually determined based on turbidity, and the MIC for each bacterial strain was obtained.

[3] = tested on: Staphylococcus aureus FDA209P strain; assay: Measurement of MIC for Staphylococcus aureus; details: read-out: MIC Staphylococcus aureus FDA209P
Description: Each of the above compounds was measured for minimum inhibitory concentration (MIC) for Staphylococcus aureus and Escherichia coli.
Staphylococcus aureus FDA209P strain and Escherichia coli K-12 strain each were cultured under shaking in a nutrient broth medium (polypeptone (product of NIHON PHARMACEUTICAL Co.) 1%, fish extract for bacteria (product of KYOKUTO PHARMACEUTICAL INDUSTRIAL Co.) 1%, and sodium chloride 0.2%) at 37° C. overnight.
After completion of the culturing, the culture was diluted with the nutrient broth medium so that the bacteria were 2×10^6 CFU/mL to 9×10^6 CFU/mL.
Each of the test samples (each of the above compounds, clarithromycin, and ampicillin) was prepared with the nutrient broth medium to have a concentration of 256 mg/L. From this concentration, the test sample was 2-fold diluted serially in 11 steps to 0.125 mg/L.
as §1, with “nutrient broth” for “HP”, “cultured” for “cultured for 144 hours”, “overnight.” for “under microaerobic culture conditions (microaerobic conditions (N2:O2:CO2=85:5:10)).”

[4] = tested on: Enterococcus faecalis JCM5803 strain; assay: Measurement of MIC for Enterococcus faecalis; details: read-out: MIC Enterococcus faecalis JCM5803
Description: Each of the above compounds was measured for minimum inhibitory concentration (MIC) for Enterococcus faecalis.
Enterococcus faecalis JCM5803 strain was cultured under shaking in a heart infusion broth medium (product of Becton, Dickinson Co.) at 37° C. overnight.
After completion of the culturing, the culture was diluted with the heart infusion broth medium so that the bacteria were 2×10^4 CFU/mL to 9×10^4 CFU/mL.
Each of the test samples (each of the above compounds, clarithromycin, and ampicillin) was prepared with the heart infusion broth medium to have a concentration of 256 mg/L. From this concentration, the test sample was 2-fold diluted serially in 11 steps to 0.125 mg/L.
The above-diluted culture was added at 50 μL/well to 50 μL/well of the heart infusion broth medium containing each of the test samples at the above concentrations, and was statically cultured at 37° C. for 18 hours.
After completion of the culturing, the presence or absence of proliferation of each bacterium was visually determined based on turbidity, and the MIC for each bacterial strain was obtained.

[5] = JCM5803, heart infusion broth medium, 37° C., 18 hours
[6] = coculture test, MKN-74 with stromal cells Hs738, cell proliferation rate, average of duplicate, read-out: Cocul IC50
[7] = JCM12093, HP medium, 144 hours, 37° C., microaerobic
[8] = nutrient broth medium, 37° C. overnight

| Structure (SMILES) | IC50 ([1]; MKN-74, read-out: Cocul IC50) [µg/mL] | MIC ([2]; JCM12093, 144 h) [µg/mL] | MIC [3] [µg/mL] | MIC [4, 5] [µg/mL] | anti-Helicobacter pylori activity (in words) [2] | IC50 [1, 6] [µg/mL] | MIC [2, 7] [µg/mL] | MIC [3, 8] [µg/mL] | MIC ([4]; JCM5803, 18 h) [µg/mL] |
| --- | --- | --- | --- | --- | --- | --- | --- | --- | --- |
| CCCCCCCc1c(C)c(=O)c2ccccc2n1CN=C(SC)SC [Structural Formula (13)] | 0.78 | 2 | 4 | > 128 |  |  |  |  |  |
| CCCCCCCc1c(C)c(=O)c2ccccc2n1CNC(=S)SC [Structural Formula (12)] | 2.91 | 0.03 | > 128 | > 128 | exhibited anti-Helicobacter pylori activity at low concentrations |  |  |  |  |
| Cc1c(CC(C)C)[nH]c2ccccc2c1=O [Structural Formula (4)] |  |  | 128 | > 128 |  | 1.32 | 0.5 |  |  |
| CCCCCCCCc1c(C)c(=O)c2ccccc2n1CC(=O)OC [Structural Formula (5)] |  |  | > 128 | > 128 |  | 0.53 | 2 |  |  |
| CCCCCCCc1c(C)c(=O)c2ccccc2n1CN=C=S [Structural Formula (11)] |  |  |  |  | exhibited anti-Helicobacter pylori activity at low concentrations | 0.12 | 0.016 | 4 | > 128 |
| CCCCCCCCc1c(C)c(=O)c2ccccc2n1CC(=O)O [Structural Formula (6)] |  |  | 128 | > 128 |  | 4.15 | 1 |  |  |
| CCCCCCCCc1nc2ccccc2c(OCC(=O)O)c1C [Structural Formula (2)] |  |  |  | > 128 |  | 0.37 | 1 | > 128 |  |
| Cc1c(CCCC/C=C/C(C)C)[nH]c2ccccc2c1=O [Structural Formula (3)] |  |  | > 128 | > 128 | exhibited anti-Helicobacter pylori activity at low concentrations | 0.012 | 0.008 |  |  |

From patent US10202347B2, “Compound, production method therefor, and use of said compound” (MICROBIAL CHEMISTRY RESEARCH FOUNDATION, priority 2013, dated 2019)
